Data from ChEMBL document CHEMBL3739419, “Influence of Sugar Amine Regiochemistry on Digitoxigenin Neoglycoside Anticancer Activity” (ACS Med Chem Lett, 2015).

Tested on: A549
Assay: Anticancer activity against human A549 cells by alamar blue assay
Type: functional, cell-based

Compound	IC50 [nM]
CON([C@H]1CC[C@@]2(C)[C@H](CC[C@@H]3[C@@H]2CC[C@]2(C)[C@@H](C4=CC(=O)OC4)CC[C@]32O)C1)[C@@H]1OC[C@@H](O)[C@H](N)[C@H]1O	10
CON([C@H]1CC[C@@]2(C)[C@H](CC[C@@H]3[C@@H]2CC[C@]2(C)[C@@H](C4=CC(=O)OC4)CC[C@]32O)C1)[C@@H]1O[C@H](CO)[C@@H](N=[N+]=[N-])[C@H](O)[C@H]1O	130
CON([C@H]1CC[C@@]2(C)[C@H](CC[C@@H]3[C@@H]2CC[C@]2(C)[C@@H](C4=CC(=O)OC4)CC[C@]32O)C1)[C@@H]1O[C@H](CO)[C@@H](N)[C@H](O)[C@H]1O	20
CON([C@H]1CC[C@@]2(C)[C@H](CC[C@@H]3[C@@H]2CC[C@]2(C)[C@@H](C4=CC(=O)OC4)CC[C@]32O)C1)[C@@H]1OC[C@@H](N=[N+]=[N-])[C@H](O)[C@H]1O	34
CON([C@H]1CC[C@@]2(C)[C@H](CC[C@@H]3[C@@H]2CC[C@]2(C)[C@@H](C4=CC(=O)OC4)CC[C@]32O)C1)[C@@H]1OC[C@@H](O)[C@H](N=[N+]=[N-])[C@H]1O	17
CON([C@H]1CC[C@@]2(C)[C@H](CC[C@@H]3[C@@H]2CC[C@]2(C)[C@@H](C4=CC(=O)OC4)CC[C@]32O)C1)[C@@H]1OC[C@@H](N)[C@H](O)[C@H]1O	43
CON([C@H]1CC[C@@]2(C)[C@H](CC[C@@H]3[C@@H]2CC[C@]2(C)[C@@H](C4=CC(=O)OC4)CC[C@]32O)C1)[C@@H]1O[C@H](CO)[C@@H](O)[C@H](N=[N+]=[N-])[C@H]1O	390
CON([C@H]1CC[C@@]2(C)[C@H](CC[C@@H]3[C@@H]2CC[C@]2(C)[C@@H](C4=CC(=O)OC4)CC[C@]32O)C1)[C@@H]1O[C@H](CO)[C@@H](O)[C@H](O)[C@H]1O	1600
CON([C@H]1CC[C@@]2(C)[C@H](CC[C@@H]3[C@@H]2CC[C@]2(C)[C@@H](C4=CC(=O)OC4)CC[C@]32O)C1)[C@@H]1O[C@H](CO)[C@@H](O)[C@H](N)[C@H]1O	34
